# Experimental data reported in PubChem BioAssay (NCI).
# Where “and” joins values, the source holds several entries; their conditions need not be identical. Equal entries are not always repeated.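 How tested: cells in 96-well plates exposed to compound for 48 hours at five concentrations. Here, GI50 denotes the concentration required for 50% inhibition of growth. TGI: concentration producing complete growth inhibition.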
# Legend:
# Assay in all cases: NCI tumour cell line growth inhibition, 48 h
# CAKI-1 renal = test system: CAKI-1 renal
# HCC-2998 colon = test system: HCC-2998 colon
# HCT-15 colon = test system: HCT-15 colon
# HT29 colon = test system: HT29 colon
# MDA-MB-231 breast = test system: MDA-MB-231 breast
# OVCAR-8 ovarian = test system: OVCAR-8 ovarian
# RPMI-8226 leukemia = test system: RPMI-8226 leukemia
# SK-OV-3 ovarian = test system: SK-OV-3 ovarian
# SR leukemia = test system: SR leukemia
# SNB-75 CNS = test system: SNB-75 CNS
SMILES,TGI (CAKI-1 renal) [µM],TGI (HCC-2998 colon),TGI (HCT-15 colon) [µM],TGI (HT29 colon) [µM],TGI (MDA-MB-231 breast) [µM],TGI (OVCAR-8 ovarian),TGI (RPMI-8226 leukemia) [µM],TGI (SK-OV-3 ovarian),TGI (SR leukemia) [µM],GI50 (CAKI-1 renal) [µM],GI50 (HCC-2998 colon),GI50 (HCT-15 colon) [µM],GI50 (MDA-MB-231 breast) [µM],GI50 (OVCAR-8 ovarian),GI50 (RPMI-8226 leukemia) [µM],GI50 (SK-OV-3 ovarian),GI50 (SNB-75 CNS) [µM],TGI (SNB-75 CNS) [µM],GI50 (SR leukemia) [µM],GI50 (HT29 colon) [µM]
Nc1nc(-c2cccnc2)cc(-c2cc(-c3cccnc3)nc(N)n2)n1,> 100,> 100 µM,> 100,> 100,> 100,> 100 µM,> 100,> 100 µM,> 100,–,–,–,–,–,–,–,–,–,–,–
CCOc1ccc(-c2nc3ccc(-c4nc5ccc(N6CCN(C)CC6)cc5[nH]4)cc3[nH]2)cc1,2.55,0.543 µM and 0.415 µM,7.61,–,2.6,0.54 µM and 1.25 µM,0.71,1.84 µM and 1.86 µM,2.67,0.555,0.267 µM and 0.196 µM,1.48,1.25,0.162 µM and 0.315 µM,0.0484,0.379 µM and 0.478 µM,0.131,0.354,0.311,–
Cc1cc(-c2nc3sc(C)cn3c2/C=N/N=C(N)N)c(C)s1,32.4,3.24 µM,40,20.2,16.3,43.6 µM,–,39.1 µM,> 100,17.4,1.73 µM,19.8,3.49,17.6 µM,–,20.9 µM,–,–,> 100,3.74
Nc1nc(Sc2ccc([N+](=O)[O-])c3nonc23)c2ncn(C3OC(CO)C(O)C3O)c2n1 (centres undefined),> 100,3.49 µM,11.9,16.2,14.8,> 46 µM,15.2,14.5 µM,> 41.2,0.669,0.777 µM,0.587,0.549,0.794 µM,0.278,0.651 µM,0.886,> 100,0.113,0.846
COc1cccc(S(=O)(=O)NC2=NCCN2C(=S)SN2CCn3c2nsc3=S)c1,66.2,> 100 µM,43.7,> 100,96,> 100 µM,97.6,99.1 µM,51.3,32,41.5 µM,21.6,28.1,44.4 µM,26.1,20.4 µM,30,89.6,18,40.2
NC(=O)c1cn(C2CC(O)C(CO)O2)c2ncnc(N)c12 (centres undefined),39.4,5.62 µM,55.2,> 54.8,21.2,17.9 µM,> 100,43 µM,> 100,3.2,1.47 µM,3.89,3.26,2.09 µM,27.7,1.68 µM,1.52,9.47,6.6,2.07
O=S(O)O.O=S(O)O.[Co].[NH2-].[NH2-].[NH2-].[NH2-],> 100,–,> 100,> 100,> 100,> 100 µM,> 100,> 100 µM,> 100,> 100,–,> 100,> 100,> 100 µM,> 100,> 100 µM,> 100,> 100,> 100,> 100
CCOC(=O)c1c(NN2CCN(CC(F)(F)F)CC2)oc(/C=C2\C=Nc3ncccc32)c1O,13.5,12.6 µM,46.7,17.1,32.4,20.6 µM,20.7,19.8 µM,3.81,1.08,2.7 µM,6.59,6.72,4.14 µM,4.25,2.93 µM,0.325,11.6,0.689,2.47
Cn1cnc([N+](=O)[O-])c1S(=O)(=O)Oc1ccc(Cl)cc1,3.51,30.2 µM,3.47,5.36,5.99,97.1 µM,17.7,> 100 µM,4.36,1.67,15.9 µM,1.64,2.8,18.8 µM,3.58,50.5 µM,14.1,29.7,1.85,2.33
O=C(Nc1ccc(Cl)c(C(F)(F)F)c1)Nc1ccc(-c2cccnc2)cc1N1CCC(CO)CC1,16,4.9 µM,8.01,4.02,4.34,35.4 µM,–,6.59 µM,> 100,2.32,2.31 µM,2.32,1.92,3.75 µM,–,2.22 µM,2.1,8.03,3.49,1.92
CC(C)(C)c1cc(C[P+](c2ccccc2)(c2ccccc2)c2ccccc2)cc(C(C)(C)C)c1O,8.7,10.2 µM,11.9,1.65,2.84,5.56 µM,0.627,6.7 µM,2.5,2.64,0.491 µM,2.39,0.473,0.386 µM,0.178,1.44 µM,0.369,6.18,0.403,0.184
COc1ccc(C2c3ccc4ccccc4c3Oc3ncn(CCCn4ccnc4)c(=N)c32)cc1OC (centres undefined),17.8,11.2 µM,12.8,5.6,8.01,11.6 µM,8.58,18.4 µM,4.15,4.84,3.45 µM,3.37,2.44,3.16 µM,2.81,5.8 µM,2.12,8.13,1.57,2.2
